Assay results published in US20260285850A1, “SUBSTITUTED OXAZOLIDINONES AND IMIDAZOLINONES AS HERBICIDES” (FMC CORPORATION, priority 2023, published 2026).

Columns and labels:
Assay type in all cases: in vivo
[1] = test system: barnyardgrass (Echinochloa crus-galli); assay: Test A preemergence soil spray, visual injury rating 0-100; conditions: 10 days, 0 = no effect, 100 = complete control
Method in brief: (§1)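 Scale 0–100 (no effect to complete control), visual, versus untreated controls, read 10 days after application. Application: preemergence directed spray onto seeded loam–sand soil, or postemergence to young plants; formulation in non-phytotoxic solvent with surfactant.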

[2] = test system: blackgrass (Alopecurus myosuroides); assay: as above; conditions: 10 days, 0 = no effect, 100 = complete control
Method in brief: as §1

corn (Zea mays) [3] = assay: as above; conditions: 10 days, 0 = no effect, 100 = complete control
Method in brief: as §1

[4] = test system: green foxtail (Setaria viridis); assay: as above; conditions: 10 days, 0 = no effect, 100 = complete control
Method in brief: as §1

kochia (Bassia scoparia) [5] = assay: as above; conditions: 10 days, 0 = no effect, 100 = complete control
Method in brief: as §1

[6] = test system: oat, wild (wild oat, Avena fatua); assay: as above; conditions: 10 days, 0 = no effect, 100 = complete control
Method in brief: as §1

[7] = test system: palmer (palmer amaranth, palmer pigweed, Amaranthus palmeri); assay: as above; conditions: 10 days, 0 = no effect, 100 = complete control
Method in brief: as §1

[8] = test system: ragweed (common ragweed, Ambrosia artemisiifolia); assay: as above; conditions: 10 days, 0 = no effect, 100 = complete control
Method in brief: as §1

[9] = test system: ryegrass, Italian (italian ryegrass, Lolium multiflorum); assay: as above; conditions: 10 days, 0 = no effect, 100 = complete control
Method in brief: as §1

soybean (Glycine max) [10] = assay: as above; conditions: 10 days, 0 = no effect, 100 = complete control
Method in brief: as §1

[11] = test system: wheat (Triticum aestivum); assay: as above; conditions: 10 days, 0 = no effect, 100 = complete control
Method in brief: as §1

[12] = test system: barnyardgrass (Echinochloa crus-galli); assay: Test A postemergence application, visual injury rating 0-100; conditions: Postemergence
Method in brief: as §1

[13] = test system: blackgrass (Alopecurus myosuroides); assay: as above; conditions: Postemergence
Method in brief: as §1

corn (Zea mays) [14] = assay: as above; conditions: Postemergence
Method in brief: as §1

[15] = test system: galium (catchweed bedstraw, Galium aparine); assay: as above; conditions: Postemergence
Method in brief: as §1

[16] = test system: green foxtail (Setaria viridis); assay: as above; conditions: Postemergence
Method in brief: as §1

[17] = test system: horseweed (Erigeron canadensis); assay: as above; conditions: Postemergence
Method in brief: as §1

kochia (Bassia scoparia) [18] = assay: as above; conditions: Postemergence
Method in brief: as §1

[19] = test system: oat, wild (wild oat, Avena fatua); assay: as above; conditions: Postemergence
Method in brief: as §1

[20] = test system: palmer (palmer amaranth, palmer pigweed, Amaranthus palmeri); assay: as above; conditions: Postemergence
Method in brief: as §1

[21] = test system: ragweed (common ragweed, Ambrosia artemisiifolia); assay: as above; conditions: Postemergence
Method in brief: as §1

[22] = test system: ryegrass, Italian (italian ryegrass, Lolium multiflorum); assay: as above; conditions: Postemergence
Method in brief: as §1

soybean (Glycine max) [23] = assay: as above; conditions: Postemergence
Method in brief: as §1

[24] = test system: wheat (Triticum aestivum); assay: as above; conditions: Postemergence
Method in brief: as §1

[25] = test system: barnyardgrass (Echinochloa crusgalli); assay: Test B flooded paddy test, visual plant response rating 0-100; conditions: 250 g ai/ha, Flood, applied to paddy water, evaluated after 13 days
Method in brief: (§2)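 Each species was raised to two leaves before flooding to a 3 cm depth and dosing the water with compound. Injury was assessed by eye after 13 days under greenhouse conditions.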

[26] = test system: ducksalad (Heteranthera limosa); assay: as above; conditions: 250 g ai/ha, Flood, applied to paddy water, evaluated after 13 days
Method in brief: as §2

rice (Oryza sativa) = assay: as above; conditions: 250 g ai/ha, Flood, applied to paddy water, evaluated after 13 days
Method in brief: as §2

[27] = test system: sedge, umbrella (small-flower umbrella sedge, Cyperus difformis); assay: as above; conditions: 250 g ai/ha, Flood, applied to paddy water, evaluated after 13 days
Method in brief: as §2

[28] = 31 g ai/ha, greenhouse 10 days, 0 no effect, 100 complete control
[29] = 125 g ai/ha, 10 days, 0 is no effect, 100 is complete control
[30] = 500 g ai/ha, 10 days, 0 is no effect, 100 is complete control

CC(=O)COC(=O)C1C=CC(NC(=O)C2(C)CN(c3cc(Cl)cc(Cl)c3)C(=O)O2)C1 (centres unmarked) [Compound 67]
60: Ragweed plant response rating (0 to 100 scale) ([8]; 125 g ai/ha)
65: Plant response rating, Barnyardgrass (0 to 100 scale, 0 is no effect and 100 is complete control) [25]
70: Blackgrass plant response rating (0 to 100 scale) ([2]; 125 g ai/ha) | Corn plant response rating (0 to 100 scale) (corn (Zea mays) [3]; 125 g ai/ha) | Kochia plant response rating (0-100) (kochia (Bassia scoparia) [5]; 31 g ai/ha) | Oat, Wild plant response rating (0 to 100 scale) ([6]; 125 g ai/ha) | Ryegrass, Italian plant response rating (0-100) ([9]; 31 g ai/ha) | Horseweed plant response rating (0 to 100 scale) [17, 29] | Kochia plant response rating (0 to 100 scale) (kochia (Bassia scoparia) [18]; [28]) | Kochia plant response rating (0 to 100 scale) (kochia (Bassia scoparia) [18]; [29]) | Ryegrass, Italian plant response rating (0 to 100 scale) [22, 28]
40: Oat, Wild plant response rating (0-100) ([6]; 31 g ai/ha)
30: Soybean plant response rating (0 to 100 scale) (soybean (Glycine max) [10]; 125 g ai/ha) | Wheat plant response rating (0-100) ([11]; 31 g ai/ha) | Plant response rating, Rice (0 to 100 scale, 0 is no effect and 100 is complete control) (rice (Oryza sativa))
90: Barnyardgrass plant response rating (0 to 100 scale) ([1]; 125 g ai/ha) | Foxtail, Green plant response rating (0 to 100 scale) ([4]; 125 g ai/ha) | Amaranth, Palmer plant response rating (0-100) ([7]; 31 g ai/ha) | Wheat plant response rating (0 to 100 scale) ([11]; 125 g ai/ha) | Blackgrass plant response rating (0 to 100 scale) [13, 28] | Galium plant response rating (0 to 100 scale) [15, 29] | Foxtail, Green plant response rating (0 to 100 scale) [16, 28] | Foxtail, Green plant response rating (0 to 100 scale) [16, 29] | Oat, Wild plant response rating (0 to 100 scale) [19, 28] | Oat, Wild plant response rating (0 to 100 scale) [19, 29] | Amaranth, Palmer / Pigweed, Palmer plant response rating (0 to 100 scale) [20, 29] | Ryegrass, Italian plant response rating (0 to 100 scale) [22, 29] | Wheat plant response rating (0 to 100 scale) [24, 28] | Wheat plant response rating (0 to 100 scale) [24, 29]
80: Kochia plant response rating (0 to 100 scale) (kochia (Bassia scoparia) [5]; 125 g ai/ha) | Ryegrass, Italian plant response rating (0 to 100 scale) ([9]; 125 g ai/ha) | Galium plant response rating (0 to 100 scale) [15, 28] | Amaranth, Palmer / Pigweed, Palmer plant response rating (0 to 100 scale) [20, 28] | Ragweed plant response rating (0 to 100 scale) [21, 29] | Soybean plant response rating (0 to 100 scale) (soybean (Glycine max) [23]; [28]) | Soybean plant response rating (0 to 100 scale) (soybean (Glycine max) [23]; [29])
20: Blackgrass plant response rating (0-100) ([2]; 31 g ai/ha) | Foxtail, Green plant response rating (0-100) ([4]; 31 g ai/ha)
98: Plant response rating, Ducksalad (0 to 100 scale, 0 is no effect and 100 is complete control) [26]
0: Corn plant response rating (0-100) (corn (Zea mays) [3]; 31 g ai/ha) | Ragweed plant response rating (0-100) ([8]; 31 g ai/ha) | Soybean plant response rating (0-100) (soybean (Glycine max) [10]; 31 g ai/ha)
50: Barnyardgrass plant response rating (0-100) ([1]; 31 g ai/ha) | Horseweed plant response rating (0 to 100 scale) [17, 28] | Ragweed plant response rating (0 to 100 scale) [21, 28]
100: Amaranth, Palmer plant response rating (0 to 100 scale) ([7]; 125 g ai/ha) | Barnyardgrass plant response rating (0 to 100 scale) [12, 28] | Barnyardgrass plant response rating (0 to 100 scale) [12, 29] | Blackgrass plant response rating (0 to 100 scale) [13, 29] | Corn plant response rating (0 to 100 scale) (corn (Zea mays) [14]; [28]) | Corn plant response rating (0 to 100 scale) (corn (Zea mays) [14]; [29]) | Plant response rating, Sedge, Umbrella (0 to 100 scale, 0 is no effect and 100 is complete control) [27]

CNC(=O)C1C=CC(NC(=O)C2(C)CN(c3cc(Cl)cc(Cl)c3)C(=O)O2)C1 (centres unmarked) [Compound 47]
40: Barnyardgrass plant response rating (0 to 100 scale) ([1]; 125 g ai/ha) | Ragweed plant response rating (0 to 100 scale) ([8]; 125 g ai/ha) | Horseweed plant response rating (0 to 100 scale) [17, 30] | Ragweed plant response rating (0 to 100 scale) [21, 29]
90: Blackgrass plant response rating (0 to 100 scale) ([2]; 500 g ai/ha) | Kochia plant response rating (0 to 100 scale) (kochia (Bassia scoparia) [5]; 125 g ai/ha) | Oat, Wild plant response rating (0 to 100 scale) ([6]; 125 g ai/ha) | Oat, Wild plant response rating (0 to 100 scale) ([6]; 500 g ai/ha) | Ryegrass, Italian plant response rating (0 to 100 scale) ([9]; 500 g ai/ha) | Corn plant response rating (0 to 100 scale) (corn (Zea mays) [14]; [30]) | Foxtail, Green plant response rating (0 to 100 scale) [16, 30]
50: Horseweed plant response rating (0 to 100 scale) [17, 29] | Ragweed plant response rating (0 to 100 scale) [21, 30] | Soybean plant response rating (0 to 100 scale) (soybean (Glycine max) [23]; [30])
20: Wheat plant response rating (0 to 100 scale) ([11]; 125 g ai/ha) | Blackgrass plant response rating (0 to 100 scale) [13, 29] | Foxtail, Green plant response rating (0 to 100 scale) [16, 29] | Oat, Wild plant response rating (0 to 100 scale) [19, 29] | Oat, Wild plant response rating (0 to 100 scale) [19, 30]
60: Ragweed plant response rating (0 to 100 scale) ([8]; 500 g ai/ha)
10: Blackgrass plant response rating (0 to 100 scale) ([2]; 125 g ai/ha) | Soybean plant response rating (0 to 100 scale) (soybean (Glycine max) [10]; 125 g ai/ha) | Wheat plant response rating (0 to 100 scale) [24, 29] | Wheat plant response rating (0 to 100 scale) [24, 30]
80: Amaranth, Palmer plant response rating (0 to 100 scale) ([7]; 125 g ai/ha) | Wheat plant response rating (0 to 100 scale) ([11]; 500 g ai/ha) | Barnyardgrass plant response rating (0 to 100 scale) [12, 30] | Corn plant response rating (0 to 100 scale) (corn (Zea mays) [14]; [29]) | Galium plant response rating (0 to 100 scale) [15, 29] | Galium plant response rating (0 to 100 scale) [15, 30] | Kochia plant response rating (0 to 100 scale) (kochia (Bassia scoparia) [18]; [30]) | Amaranth, Palmer / Pigweed, Palmer plant response rating (0 to 100 scale) [20, 29]
100: Barnyardgrass plant response rating (0 to 100 scale) ([1]; 500 g ai/ha) | Foxtail, Green plant response rating (0 to 100 scale) ([4]; 500 g ai/ha) | Kochia plant response rating (0 to 100 scale) (kochia (Bassia scoparia) [5]; 500 g ai/ha) | Amaranth, Palmer plant response rating (0 to 100 scale) ([7]; 500 g ai/ha) | Amaranth, Palmer / Pigweed, Palmer plant response rating (0 to 100 scale) [20, 30]
70: Corn plant response rating (0 to 100 scale) (corn (Zea mays) [3]; 500 g ai/ha) | Ryegrass, Italian plant response rating (0 to 100 scale) ([9]; 125 g ai/ha) | Blackgrass plant response rating (0 to 100 scale) [13, 30] | Kochia plant response rating (0 to 100 scale) (kochia (Bassia scoparia) [18]; [29]) | Ryegrass, Italian plant response rating (0 to 100 scale) [22, 30]
0: Soybean plant response rating (0 to 100 scale) (soybean (Glycine max) [10]; 500 g ai/ha) | Barnyardgrass plant response rating (0 to 100 scale) [12, 29] | Plant response rating, Barnyardgrass (0 to 100 scale, 0 is no effect and 100 is complete control) [25] | Plant response rating, Rice (0 to 100 scale, 0 is no effect and 100 is complete control) (rice (Oryza sativa)) | Plant response rating, Sedge, Umbrella (0 to 100 scale, 0 is no effect and 100 is complete control) [27]
30: Corn plant response rating (0 to 100 scale) (corn (Zea mays) [3]; 125 g ai/ha) | Foxtail, Green plant response rating (0 to 100 scale) ([4]; 125 g ai/ha) | Ryegrass, Italian plant response rating (0 to 100 scale) [22, 29] | Soybean plant response rating (0 to 100 scale) (soybean (Glycine max) [23]; [29]) | Plant response rating, Ducksalad (0 to 100 scale, 0 is no effect and 100 is complete control) [26]
